Test system: HIV-1 fusion
Assay: cells
Format: cell-based
Conditions: HIV cell fusion assay; HeLa P4 (CCR5/CD4) and CHO-Tat10 (gp160 JRFL) cells; read-out: IC50
Method: The gp160 induced cell-cell fusion assay uses a HeLa P4 cell line and a CHO-Tat10 cell line.
The HeLa P4 cell line expresses CCR5 and CD4 and has been transfected with HIV-1 LTR-β-Galactosidase. The media for this cell line is Dulbecco modified eagle's medium (D-MEM) (without L-glutamine) containing 10% foetal calf serum (FCS), 2 mM L-glutamine, penicillin/streptomycin (Pen/Strep; 100 U/mL penicillin+[…] streptomycin), and 1 μg/ml puromycin.
The CHO cell line is a Tat (transcriptional trans activator)-expressing clone from a CHO JRR17.1 cell line that has been transfected with pTat puro plasmid. The media for this cell line is rich medium for mammalian cell culture originally developed at Roswell Park Memorial Institute RPMI1640 (without L-glutamine) containing 10% FCS, 2 mM L-glutamine, 0.5 mg/ml Hygromycin B and 12 μg/ml puromycin. The CHO JRR17.1 line expresses gp160 (JRFL) and is a clone that has been selected for its ability to fuse with a CCR5/CD4 expressing cell line.
Upon cell fusion, Tat present in the CHO cell is able to transactivate the HIV-1 long terminal repeat (LTR) present in the HeLa cell leading to the expression of the β-Galactosidase enzyme. This expression is then measured using a Fluor Ace™ β-Galactosidase reporter assay kit (Bio-Rad cat no. 170-3150). This kit is a quantitative fluorescent assay that determines the level of expression of β-galactosidase using 4-methylumbelliferyl-galactopyranoside (MUG) as substrate. β-Galactosidase hydrolyses the fluorogenic substrate resulting in release of the fluorescent molecule 4-methylumbelliferone (4 MU). Fluorescence of 4-methylumbelliferone is then measured on a fluorometer using an excitation wavelength of 360 nm and emission wavelength of 460 nm.

## Cc1ccnc(C)c1C(=O)N1CCC(N2CC[C@@H](N(Cc3ccccc3)C(=O)C3CC(F)(F)C3)C2)CC1 [Example 22]
  IC50: 1.21 nM

## Cc1ncnc(C)c1C(=O)N1CCC(C)(N2CC[C@@H](N(Cc3ccccc3)C(=O)C3CC3)C2)CC1 [Example 63]
  IC50: 8.18 nM

## O=C(c1c(F)cccc1Cl)N1CCC(N2CC[C@@H](N(Cc3ccccc3)C(=O)CC3CC3)C2)CC1 [Example 51]
  IC50: 100 nM

## COCC(=O)N(Cc1ccccc1)[C@@H]1CCN(C2CCN(C(=O)c3ccccc3C(F)(F)F)CC2)C1 [Example 55]
  IC50: 48.1 nM

## COCC(=O)N(Cc1cccc(F)c1)[C@@H]1CCN(C2CCN(C(=O)c3c(C)ccnc3C)CC2)C1 [Example 25]
  IC50: 5.04 nM

## Cc1ccnc(C)c1C(=O)N1CCC(N2CC[C@@H](N(Cc3ccccc3F)C(=O)C(C)C)C2)CC1 [Example 27]
  IC50: 8.8 nM

## Cc1cccc(C)c1C(=O)N1CCC(N2CC[C@@H](N(Cc3ccccc3)C(=O)C(C)C)C2)CC1 [Example 8]
  IC50: 0.63 nM

— US20090124636A1, “CHEMICAL COMPOUNDS” (priority 2006, published 2009)
